These results are taken from ChEMBL document CHEMBL3632499, “Synthesis and Antiproliferative Activity Evaluation of the Disulfide-Containing Cyclic Peptide Thiochondrilline C and Derivatives” (J Nat Prod, 2015).

The subject of assay [1] is A549. The experiment in a line: Cytotoxicity against human A549 cells. It counts as functional, cell-based.
For assay [2], the system named is A549. Put plainly: Antiproliferative activity against human A549 cells assessed as growth inhibition at 10 uM. The assay is classed as functional. To be noted: read-out: GI.

Positions of bridges follow the written chain, without caps; N, C: chain ends. Non-standard residues stand in square brackets, D forms with d. Residues, ends and D or L forms follow the SMILES beside them. Chains are numbered I, II in the order given. *: point of attachment. Quinaldoyl(3-OH) = O=C(c1nc2ccccc2cc1O)*; NMeC = CN[C@@H](CS)C(=O)O

Take `CSC[C@H]1C(=O)SC[C@@H](NC(=O)c2nc3ccccc3cc2O)C(=O)NCC(=O)N(C)[C@H]2CSSC[C@@H](C(=O)N1C)N(C)C(=O)CNC(=O)[C@H](NC(=O)c1nc3ccccc3cc1O)CSC(=O)[C@H](CSC)N(C)C2=O` [THIOCORALINE A] (I: {Quinaldoyl(3-OH)}-[dC]G[NMeC][NMeC](Me) / II: {Quinaldoyl(3-OH)}-[dC]G[NMeC][NMeC](Me); thioester I:1-II:C, I:C-II:1; disulfide I:3-II:3): in the assay on A549 [1], the concentration for a half-maximal effect (EC50) (usually the concentration needed to bring the measured effect to its halfway point) turned out to be 10 nM.

On to `CN1C(=O)CNC(=O)[C@H](NC(=O)c2nc3ccccc3cc2O)CSSC[C@H]1C(=O)O`, for which, in the assay on A549 [2], the inhibition of growth at 10 µM is less than 30%.

With `COC(=O)[C@H](C)N(C)C(=O)[C@@H]1CSSC[C@@H](NC(=O)c2nc3ccccc3cc2O)C(=O)NCC(=O)N1C`, the inhibition of growth at 10 µM with A549 [2] was less than 30%.

`COC(=O)[C@H](CSC)N(C)C(=O)[C@@H]1CSSC[C@@H](NC(=O)c2nc3ccccc3cc2O)C(=O)NCC(=O)N1C` ({Quinaldoyl(3-OH)}-[dC]G[NMeC][NMeC](Me)-OMe; disulfide 1-3) came in with a 50% effective concentration (EC50) in the assay with A549 [1] of 2900 nM.
